Laboratory results published in patent US10168342B2, “Lipid probes and uses thereof” (THE SCRIPPS RESEARCH INSTITUTE, priority 2015, dated 2019).
Read-outs that look alike come from different tables or passages of the source.

Legend:
[1] = molecular target: AEA-DA lipid probe targets in Neuro2a cells (Mus musculus, UniProt P29391)
[2] = molecular target: T1, AEA-DA lipid probe targets in Neuro2a cells (Mus musculus, UniProt P35564)
T1 sequence (P35564 21-591): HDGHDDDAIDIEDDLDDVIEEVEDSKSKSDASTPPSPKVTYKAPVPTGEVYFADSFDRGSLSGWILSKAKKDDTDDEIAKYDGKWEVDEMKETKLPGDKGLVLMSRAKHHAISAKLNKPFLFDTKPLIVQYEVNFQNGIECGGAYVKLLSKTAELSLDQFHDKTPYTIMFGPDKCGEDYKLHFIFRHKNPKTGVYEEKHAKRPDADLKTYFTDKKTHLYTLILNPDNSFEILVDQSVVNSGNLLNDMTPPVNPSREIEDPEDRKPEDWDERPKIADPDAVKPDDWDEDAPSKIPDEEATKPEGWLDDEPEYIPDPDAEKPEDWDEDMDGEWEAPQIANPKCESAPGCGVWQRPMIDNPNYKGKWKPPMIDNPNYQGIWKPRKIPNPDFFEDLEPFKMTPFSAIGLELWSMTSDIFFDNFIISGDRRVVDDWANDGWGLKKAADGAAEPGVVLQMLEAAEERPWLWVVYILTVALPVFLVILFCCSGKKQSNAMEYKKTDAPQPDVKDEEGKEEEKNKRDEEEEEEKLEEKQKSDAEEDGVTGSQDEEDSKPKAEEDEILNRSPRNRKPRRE

[3] = molecular target: T2, AEA-DA lipid probe targets in Neuro2a cells (Mus musculus, UniProt Q5XKN4)
T2 sequence (Q5XKN4 1-183): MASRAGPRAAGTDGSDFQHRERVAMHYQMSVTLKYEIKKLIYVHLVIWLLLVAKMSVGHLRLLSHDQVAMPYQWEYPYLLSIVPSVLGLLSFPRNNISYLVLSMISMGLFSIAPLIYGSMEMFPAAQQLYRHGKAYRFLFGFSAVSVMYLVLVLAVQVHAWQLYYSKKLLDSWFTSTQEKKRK

[4] = molecular target: T3, AEA-DA lipid probe targets in Neuro2a cells (Mus musculus, UniProt Q8BTX9)
T3 sequence (Q8BTX9 1-330): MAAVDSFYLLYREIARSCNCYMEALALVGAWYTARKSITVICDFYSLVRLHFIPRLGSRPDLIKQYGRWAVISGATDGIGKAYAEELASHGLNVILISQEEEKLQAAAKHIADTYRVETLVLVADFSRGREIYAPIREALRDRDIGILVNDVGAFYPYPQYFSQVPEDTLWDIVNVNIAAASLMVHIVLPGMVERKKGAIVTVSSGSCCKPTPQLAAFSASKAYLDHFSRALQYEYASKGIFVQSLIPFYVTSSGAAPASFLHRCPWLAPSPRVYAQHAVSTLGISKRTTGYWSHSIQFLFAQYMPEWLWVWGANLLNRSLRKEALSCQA

[5] = molecular target: AEA-DA lipid probe targets in Neuro2a cells (Mus musculus, UniProt Q9QUJ7)
[6] = molecular target: AEA-DA lipid probe targets in Neuro2a cells (Mus musculus, UniProt P47867)
[7] = molecular target: T4, AEA-DA lipid probe targets in Neuro2a cells (Mus musculus, UniProt P42125)
T4 sequence (P42125 29-289): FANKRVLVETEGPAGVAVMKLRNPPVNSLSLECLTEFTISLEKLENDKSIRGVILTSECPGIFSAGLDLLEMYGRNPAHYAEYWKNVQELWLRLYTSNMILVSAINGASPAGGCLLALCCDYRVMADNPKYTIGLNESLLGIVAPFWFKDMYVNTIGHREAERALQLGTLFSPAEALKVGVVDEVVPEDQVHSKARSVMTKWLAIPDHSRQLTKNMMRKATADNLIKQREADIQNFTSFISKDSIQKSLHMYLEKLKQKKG

[8] = test system: PGE2 and TXB2 production in PMA-stimulated A549 cells; assay: Prostaglandin production in A549 cells; assay type: cell-based, human; conditions: 10 μM, 30 min pre-treatment, then PMA
Protocol: The old media was removed from each plate and cells were washed with DPBS (2×3 mL) before adding freshly prepared media solutions containing vehicle or compound (3 mL/plate). After incubating for 30 min at 37° C., cells were then stimulated with PMA (10 nM) for 8 h. The media from the cells was then transferred to glass vials containing MS internal standards [PGE2-d9 (10 pmol), PGD2-d9 (10 pmol) and TXB2-d4 (10 pmol)], centrifuged (1,500×g, 5 min) to remove detached cells and then loaded onto preequilibrated reversed phase SPE cartridges (Phenomenex, Strata-X 33 μm, 60 mg/3 mL). After washing cartridges with 5% MeOH/H2O (3 mL), analytes were eluted with MeOH (1.0 mL) and the eluent was concentrated under a stream of N2. Concentrated samples were stored at −80° C. until the day of analysis when they were reconstituted in Mobile Phase A [100 μL, 30% CH3CN in H2O (0.1% AcOH)]. Media extracts were analyzed by LC/MS/MS with LC separation performed on a Kinetex reversed phase C18 column (50×4.6 mm, 2.6 μM particle size, 100Å). Mobile phase gradients were identical to those described above for prostamide analysis and the composition Mobile phases A and B differed only by lacking NH4OAc (5 mM). The following MS parameters were used to measure the indicated metabolites by MRM (precursor ion, product ion, collision energy, polarity): PGE2 (351, 271, 12, negative), PGE2-d9 (360, 280, 12, negative), TXB2 (369, 169, 6, negative), TXB2-d4 (373, 173, 6, negative). PGE2 and TXB2 levels were quantified by determining peak areas in relation to their deuterated internal standard.

AEA-DA lipid probe targets in Neuro2a cells (Mus musculus, UniProt P47867), sequence (P47867 23-471): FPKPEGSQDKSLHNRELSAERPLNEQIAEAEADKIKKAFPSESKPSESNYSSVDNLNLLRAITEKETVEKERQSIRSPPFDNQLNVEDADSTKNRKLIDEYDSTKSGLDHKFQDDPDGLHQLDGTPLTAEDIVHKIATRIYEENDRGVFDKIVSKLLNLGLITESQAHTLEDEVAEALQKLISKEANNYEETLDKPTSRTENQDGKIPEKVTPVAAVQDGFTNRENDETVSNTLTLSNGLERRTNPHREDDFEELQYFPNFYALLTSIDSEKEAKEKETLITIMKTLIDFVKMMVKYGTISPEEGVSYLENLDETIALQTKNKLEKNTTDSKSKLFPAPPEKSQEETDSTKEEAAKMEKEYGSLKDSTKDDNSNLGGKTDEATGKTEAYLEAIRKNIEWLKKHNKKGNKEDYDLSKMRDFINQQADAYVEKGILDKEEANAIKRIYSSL
AEA-DA lipid probe targets in Neuro2a cells (Mus musculus, UniProt P29391), sequence (P29391 whole entry): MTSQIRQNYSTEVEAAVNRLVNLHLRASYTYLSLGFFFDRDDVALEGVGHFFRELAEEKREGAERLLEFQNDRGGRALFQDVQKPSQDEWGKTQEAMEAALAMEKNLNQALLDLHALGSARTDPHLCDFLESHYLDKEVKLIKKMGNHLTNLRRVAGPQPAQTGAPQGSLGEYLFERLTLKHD
AEA-DA lipid probe targets in Neuro2a cells (Mus musculus, UniProt Q9QUJ7), sequence (Q9QUJ7 whole entry): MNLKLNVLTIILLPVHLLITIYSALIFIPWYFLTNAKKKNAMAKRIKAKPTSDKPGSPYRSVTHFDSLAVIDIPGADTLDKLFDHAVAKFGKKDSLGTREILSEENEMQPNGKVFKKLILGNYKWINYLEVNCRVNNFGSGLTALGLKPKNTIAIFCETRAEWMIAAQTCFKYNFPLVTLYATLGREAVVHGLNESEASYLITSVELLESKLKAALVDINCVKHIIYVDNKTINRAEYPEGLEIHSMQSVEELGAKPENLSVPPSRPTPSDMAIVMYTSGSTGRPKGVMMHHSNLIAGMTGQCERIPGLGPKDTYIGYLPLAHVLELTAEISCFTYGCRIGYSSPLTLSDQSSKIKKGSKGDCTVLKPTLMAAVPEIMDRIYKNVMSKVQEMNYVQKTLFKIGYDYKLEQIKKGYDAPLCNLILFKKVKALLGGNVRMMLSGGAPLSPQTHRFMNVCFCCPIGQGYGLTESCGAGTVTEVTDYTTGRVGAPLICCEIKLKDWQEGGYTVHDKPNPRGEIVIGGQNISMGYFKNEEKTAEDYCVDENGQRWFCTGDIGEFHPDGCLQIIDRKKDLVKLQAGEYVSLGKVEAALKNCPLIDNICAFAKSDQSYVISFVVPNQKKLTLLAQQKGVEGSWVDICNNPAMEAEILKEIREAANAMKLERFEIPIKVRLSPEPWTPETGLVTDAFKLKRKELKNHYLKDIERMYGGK

| SMILES | SILAC ratio Ftl1 ([1]; competitor 25 μM) | SILAC ratio, Canx ([2]; competitor 25 μM) | SILAC ratio, Jagn1 ([3]; competitor 25 μM) | SILAC ratio, Hsdl1 ([4]; competitor 25 μM) | SILAC ratio Acsl4 ([5]; competitor 25 μM) | SILAC ratio, Scg3 ([6]; competitor 25 μM) | SILAC ratio, Eci1 ([7]; competitor 25 μM) | PGE2 synthesis from endogenous AA [8] | TXB2 synthesis from endogenous AA [8] | other results |
| --- | --- | --- | --- | --- | --- | --- | --- | --- | --- | --- |
| CCCCC/C=C\C/C=C\C/C=C\C/C=C\CCCC(=O)NCCO [AEA, anandamide, reference compound] |  |  |  |  |  |  |  |  |  | SILAC ratio Ftl1 ([1]; competitor 200 μM): 1.6; SILAC ratio, Canx ([2]; competitor 200 μM): 1.6; SILAC ratio, Jagn1 ([3]; competitor 200 μM): 2.1; SILAC ratio, Hsdl1 ([4]; competitor 200 μM): 2.5; SILAC ratio Acsl4 ([5]; competitor 200 μM): 1.6; SILAC ratio, Scg3 ([6]; competitor 200 μM): 1.2; SILAC ratio, Eci1 ([7]; competitor 200 μM): 2.0 |
| O=C(/C=C/c1cccnc1)NCCCCC1CCN(C(=O)c2ccccc2)CC1 [FK-866, reference compound] | 1.6 | 1.2 | 1.1 | 1.0 | 1.3 | 1.0 | 1.2 | no effect | complete suppression |  |
| CN1CCN(C(=O)c2c(-c3ccccc3)c3cc([N+](=O)[O-])ccc3n2C)CC1 [KML110, (1-Methyl-5-nitro-3-phenyl-1H-indol-2-yl)(4-methylpiperazin-1-yl)methanone] | 0.9 | 1.6 | 1.5 | 1.4 | 1.3 | 1.0 | 1.5 | suppress | suppress |  |
| CN1CCN(C(=O)c2[nH]c3ccc([N+](=O)[O-])cc3c2-c2ccccc2)CC1 [MJN228, (4-Methylpiperazin-1-yl)(5-nitro-3-phenyl-1H-indol-2-yl)methanone] |  | 1.7 | 1.4 | 1.2 | 1.4 | 1.3 | 2.0 | suppress | suppress | SILAC ratio Ftl1 ([1]; competitor 100 μM): 1.0; SILAC ratio, Canx ([2]; competitor 10 μM): 1.3; SILAC ratio, Canx ([2]; competitor 50 μM): 1.8; SILAC ratio, Canx ([2]; competitor 100 μM): 2.6; SILAC ratio, Jagn1 ([3]; competitor 10 μM): 1.2; SILAC ratio, Jagn1 ([3]; competitor 50 μM): 1.6; SILAC ratio, Jagn1 ([3]; competitor 100 μM): 2.1; SILAC ratio, Hsdl1 ([4]; competitor 10 μM): 1.1; SILAC ratio, Hsdl1 ([4]; competitor 50 μM): 1.0; SILAC ratio, Hsdl1 ([4]; competitor 100 μM): 1.5; SILAC ratio Acsl4 ([5]; competitor 10 μM): 1.2; SILAC ratio Acsl4 ([5]; competitor 50 μM): 1.6; SILAC ratio Acsl4 ([5]; competitor 100 μM): 1.7; SILAC ratio, Scg3 ([6]; competitor 10 μM): 1.0; SILAC ratio, Scg3 ([6]; competitor 50 μM): 1.0; SILAC ratio, Scg3 ([6]; competitor 100 μM): 0.8; SILAC ratio, Eci1 ([7]; competitor 10 μM): 1.4; SILAC ratio, Eci1 ([7]; competitor 50 μM): 2.4; SILAC ratio, Eci1 ([7]; competitor 100 μM): 3.8 |
| C=CCN(C)CCCCCCOc1ccc(C(=O)c2ccc(Br)cc2)c(F)c1 [Ro 48-8071, reference compound] | 0.4 | 1.2 | 1.0 | 0.9 | 1.1 | 0.9 | 0.9 |  |  |  |
